Consider 21 molecules from patent publication US20250387379A1, “ARYL-ANILINE AND HETEROARYL-ANILINE COMPOUNDS FOR TREATMENT OF SKIN CANCERS” (NFLECTION THERAPEUTICS, INC., priority 2018, published 2025).

SMILES strings stand for the structures.

MAP2K1 (MEK1), sequence (Q02750 whole entry): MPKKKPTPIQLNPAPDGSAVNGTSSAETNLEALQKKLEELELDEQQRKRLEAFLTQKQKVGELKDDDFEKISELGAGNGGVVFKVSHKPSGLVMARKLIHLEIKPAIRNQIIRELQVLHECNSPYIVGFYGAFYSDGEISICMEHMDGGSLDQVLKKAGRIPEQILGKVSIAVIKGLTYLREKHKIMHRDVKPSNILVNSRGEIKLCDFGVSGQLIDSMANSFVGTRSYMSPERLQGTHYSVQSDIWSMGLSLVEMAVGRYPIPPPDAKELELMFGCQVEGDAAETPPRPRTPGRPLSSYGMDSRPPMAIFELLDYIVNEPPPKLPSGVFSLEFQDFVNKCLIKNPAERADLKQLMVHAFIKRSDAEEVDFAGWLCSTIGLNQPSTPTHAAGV

The first data set has as its target MAP2K1 (MEK1) (Homo sapiens (Human), UniProt Q02750). Put plainly: MEK Inhibition Assay-2 (Z'-LYTE biochemical assay; Example 5). As to conditions: Table 6, Z'-LYTE procedure of Example 5; read-out: IC50 against MEK1. On the procedure: MEK1 inhibitory activity of compounds were tested using the following procedure (protocol available at thermofisher.com/content/dam/LifeTech/migration/files/drug-discovery/pdfs.par.60256.file.dat/20130430%20ssbk%20customer%20protocol%20and%20assay%20conditions.pdf). The Z′-LYTE biochemical assay (ThermoFisher) employs a fluorescence-based, coupled-enzyme format and is based on the differential sensitivity of phosphorylated and non-phosphorylated peptides to proteolytic cleavage.
Test compounds in 100% DMSO were screened in 1% DMSO (final) in the well. For 10 point titrations, 3-fold serial dilutions are conducted from the starting concentration of 30 μM.
After the 1 hour incubation, 5 μL of a 1:1024 dilution of Development Reagent A (available from Invitrogen, catalog no. PV3295) was added.
ATP solutions were diluted to a 4× working concentration in Kinase Buffer (50 mM HEPES pH 7.5, 0.01% BRIJ-35, 10 mM MgCl2, 1 mM EGTA). ATP Km apparent was previously determined using a Z′-LYTE assay. The Development Reagent was diluted in Development Buffer (available from Invitrogen, catalog no. P3127).
Assay Protocol: 2.5 μL of 4× test compound or 100 nL of 100× Test Compound plus 2.4 μL Kinase Buffer, 5 μL of the 2× Peptide/Kinase Mixture, 2.5 μL of 4×ATP Solution were added to the plates and placed on a shake plate for 30-seconds. The kinase reaction was allowed to proceed for 60-minute at room temperature, before 5 μL of Development Reagent Solution was added, and the mixture agitated for 30-seconds on a shake plate. The mixture was incubated for 60-minute at room temperature. Fluorescence was measured using a plate reader and the data were analyzed.
This control yielded 100% cleaved peptide in the Development Reaction. The 100% Phosphorylation Control, which consisted of a synthetically phosphorylated peptide of the same sequence as the peptide substrate, was designed to allow for the calculation of percent phosphorylation. This control yielded a very low percentage of cleaved peptide in the Development Reaction. The 0% Phosphorylation and 100% Phosphorylation Controls allow for the calculation of the percent phosphorylation achieved in a specific reaction well.
The minimum emission ratio in a screen was established by the 0% Inhibition Control, which contained active kinase. This control was designed to produce a 10-50% phosphorylated peptide in the Kinase Reaction. Cascade assays may produce up to 70% phosphorylated peptide.
A known inhibitor control standard curve, 10 point titration, was run for each individual kinase on the same plate as the kinase to ensure the kinase was inhibited within an expected IC50 range previously determined.
The following controls are prepared for each concentration of Test Compound assayed. […] The expected value for a non-interfering compound should be 100%. Any value outside of 90% to 110% was flagged. […] The expected value for a non-fluorescence compound should be 0%. Any value >20% was flagged.
The data in Table A was calculated. XLfit from IDBS was used. The dose response curve was curve fit to model number 205 (sigmoidal dose-response model).
For `O=C1CCCc2c1sc(Nc1ccc(I)cc1F)c2C(=O)NC[C@@H](O)CO` [Compound 4.035], the IC50 (in general, the midpoint of a concentration-inhibition curve) was at most 150 nM.
Turning to `COC(=O)Cn1ccc2cncc(Nc3ccc(I)cc3F)c2c1=O` [Compound 5.005], the IC50 is above 1500 nM.
Same read-out and setting: under `COC(=O)CCONC(=O)c1ccc(C#N)cc1Nc1ccc(I)cc1F` [Compound 1.022] stands above 1500 nM.
On the same count and under the same terms, then `N#Cc1ccc(C(=O)NOCCO)c(Nc2ccc(I)cc2F)c1` [Compound 1.010], with at most 150 nM.
The same measure, in the same setting: then `NCCONC(=O)c1c(Nc2ccc(I)cc2F)sc2c1CCCC2=O` [Compound 4.033], with at most 150 nM; and `O=c1c2c(Nc3ccc(I)cc3F)cncc2ccn1C[C@@H](O)CO` [Compound 5.001], with at most 150 nM.
For the molecule `N#Cc1ccc(C(=O)N2CC(O)C2)c(Nc2ccc(I)cc2F)c1` [Compound 1.002], the IC50 is above 1500 nM.
With `O=c1c2c(Nc3ccc(I)cc3F)cncc2ccn1C[C@H](O)CO` [Compound 5.002], the IC50 is at most 150 nM.
Turning to `O=C1CCCc2c1sc(Nc1ccc(I)cc1F)c2C(=O)NOCCO` [Compound 4.029], the IC50 is at most 150 nM.
For `O=C1CCCc2c1sc(Nc1ccc(I)cc1F)c2C(=O)NOCC1CC1` [Compound 4.032], the IC50 was at most 150 nM.
Turning to `N#Cc1ccc(C(=O)NOCC2CC2)c(Nc2ccc(I)cc2F)c1F` [Compound 1.031], the IC50 is at most 150 nM.
The same measure, in the same setting: then `O=C1CCCc2c1sc(Nc1ccc(I)cc1F)c2C(=O)NC[C@H](O)CO` [Compound 4.034], with at most 150 nM; and `N#Cc1ccc(C(=O)NOCCO)c(Nc2ccc(I)cc2F)c1F` [Compound 1.030], with at most 150 nM; and `N#Cc1ccc(C(=O)NO)c(Nc2ccc(I)cc2F)c1` [Compound 1.017], with at most 150 nM.
Same read-out and setting: then `O=C(O)Cn1ccc2cncc(Nc3ccc(I)cc3F)c2c1=O` [Compound 5.004], with above 1500 nM.
With `O=C1CCCc2c1sc(Nc1ccc(I)cc1F)c2C(=O)NOC[C@H](O)CO` [Compound 4.030], the IC50 was at most 150 nM.

Another data set relates to cutaneous squamous-cell carcinoma tumors.
Test: not given
As to conditions: topical delivery.
As for `Cn1c(Nc2ccc(I)cc2F)c(C(=O)NOCCO)c2cccnc21` [Compound 2.003], the “body weight loss of treated mice” value is “none of the mice lost weight”.

The data set is the same for the next values; noted with them: topical gel 0.01%, 0.15%, 0.5% by weight, 30 day course of treatment, first 12 mice.
Consider `Cn1c(Nc2ccc(I)cc2F)c(C(=O)NOCCO)c2cccnc21` [Compound 2.003], for which the “tumor formation versus topical vehicle (placebo)” value is given as “mice treated with the topical vehicle (placebo) formed substantially more tumors than those treated with Compound 2.003 at all concentrations”.

The same data set, now with this note: topical gel 0.5%, 0.15%, 0.01%, FIG. 5.
In the case of `Cn1c(Nc2ccc(I)cc2F)c(C(=O)NOCCO)c2cccnc21` [Compound 2.003], the “tumor induction (new tumors per mouse)” value is recorded as “completely suppress tumor induction”.

Staying with this data set, now noted: topical gel 0.5%, 0.15%, 0.01%, FIG. 6.
In the case of `Cn1c(Nc2ccc(I)cc2F)c(C(=O)NOCCO)c2cccnc21` [Compound 2.003], the “size of existing tumors (tumor volume per mouse)” value is given as “reduce the size of existing tumors”.

A further data set concerns skin tumors.
Test: not given
Conditions: oral; trametinib 2 mg/kg/day, cobimetinib 10 mg/kg/day; chronic, low-dose, solar simulated UV light; cited from earlier work.
As to `CC(=O)Nc1cccc(-n2c(=O)n(C3CC3)c(=O)c3c(Nc4ccc(I)cc4F)n(C)c(=O)c(C)c32)c1` [trametinib], the “reduction of skin tumors” value is “effective in reducing skin tumors”.
`O=C(c1ccc(F)c(F)c1Nc1ccc(I)cc1F)N1CC(O)([C@@H]2CCCCN2)C1` [cobimetinib]: the “reduction of skin tumors” value is recorded as “effective in reducing skin tumors”.

System in a further data set: not given
Test: not given
As to conditions: topical application; cited from earlier work.
Consider `CC(C)Cn1cnc2c(N)nc3ccccc3c21` [imiquimod, Imiquimod], for which the “patients who experienced at least 1 adverse event ranging from mild to severe” value is “Up to 100%”.
With `O=c1[nH]cc(F)c(=O)[nH]1` [5-fluorouracil], the “patients who experienced at least 1 adverse event ranging from mild to severe” value is at most 97%.
